Patent US4590161A, “Microbiologically produced L-phenylalanine-dehydrogenase, process for its recovery and use” (priority 1983, dated 1986)

How the values were obtained:
[1] = system: L-phenylalanine-dehydrogenase; assay: Photometric test of reductive amination (decrease of NADH at 340 nm); details: purified PheDH (0.055 mg protein/ml), pH 8.5, 0.2 mM NADH, 0.7M ammonium chloride
Procedure: The enzyme activity is determined with a photometric test, by measuring the decrease of the adsorption of NADH at 340 nm. […] The reaction rate of the catalyzed reaction is measured in relation of pH. […] If the substrate concentration of the aromatic α-ketocarboxylic acids or of the aromatic L-aminocarboxylic acids is small compared to their Km value then the reaction rate depends linearly on the substrate concentration.
The relationship of the speed of reaction of the reductive amination of phenyl pyruvate to L-phenylalanine for the substrate NADH was investigated in the following test mixture:
The dependency of the speed of reaction of the reductive amination of phenyl pyruvate to L-phenylalanine on the ammonium ion concentration was investigated in the following test mixture.

[2] = system: L-phenylalanine-dehydrogenase; assay: Continuous production of L-phenylalanine in enzyme membrane reactor with PEG-NADH; format: biochemical, Brevibacterium species DSM 2448; details: over 110 hours, residence time 2.5 hours, 20 mM phenyl pyruvate
Source text: It is possible to continuously synthesize phenalyalanine from phenyl pyruvate in an enzyme membrane reactor using molecular weight enlarged NADH bound to polyethylene glycoe (PEG). The PEG-NADH was produced according to German Pat. No. 2,841,414. The modified coenzyme and the enzyme formate-dehydrogenase employed and L-phenylalanine-dehydrogenase were retained in the reactor by an ultrafiltration membrane YM5 (product of the Amicon Company, Witten) while the lower molecular weight components of the reaction solution, unreacted substrate and the L-phenylalanine formed were continuously removed from the reactor. The reactor volume was held constant while phenyl pyruvate and ammonium formate were metered in from a reservoir to the same extent that the ultrafiltrate left the reactor. The reactor volume was 10 ml, the concentration of PEG-NADH 0.3 mM. There were injected into the reactor 20 units of formate-dehydrogenaseand 20 units of L-phenylalanine-dehydrogenase. […]
The reaction solution was continuously circulated over the membrane at 30 ml/hour with a peristaltic pump. […] The ultrafiltrate was collected in fractions and the content of L-phenylalanine determined on the aminoacid analyzer. Over a time span of 110 hours on the average 70% of the phenyl pyruvate was converted to L-phenylalanine, in the combined ultrafiltrates there were measured 6.9 mmoles (1.14 grams) of L-phenylalanine. […]

[3] = system: L-phenylalanine-dehydrogenase; assay: Batch reductive amination of α-ketocarboxylic acids with NADH regeneration by formate-dehydrogenase, product on aminoacid analyzer; format: biochemical, Brevibacterium species DSM 2448
Procedure: In order to regenerate the NADH consumed in the reductive amination there was added to the reaction mixture an excess of ammonium formate and the enzyme formate-dehydrogenase (E.C. 1.2.1.2) which in the oxidation of formate to CO2 reduces the cosubstrate NAD^+ to NADH.
The test mixture contained thereby uniformly 400 mM of ammonium formate (pH 8.5), 0.3 mM NADH, 0.6 U/ml formate-dehydrogenase (prepared according to Kroner et al (1982), J. Chem. Tech. Biotechnol, Volume 32, pages 130 to 137), 0.5 U/ml L-phenylalanine-dehydrogenase, 25 mM α-ketocarboxylic acid. The total volume was 3 ml. The incubation was carried out with stirring at 27° C. The product formation in each case was followed on the aminoacid analyzer.

[4] = 25 mM α-ketocarboxylic acid, 0.5 U/ml enzyme, 27° C., 2 hours
[5] = 25 mM α-ketocarboxylic acid, 0.5 U/ml enzyme, 27° C., 6 hours

## O=C(O)C(=O)Cc1ccccc1 [Phenylpyruvate, Phenyl pyruvic acid]
[1]
  Km: 110 µM
  Vmax: 1.82 U/ml
[2]
  phenyl pyruvate converted to L-phenylalanine, on the average: 70%
[3]; [4]
  Product Formation after 2 hours, %: 50%
  Product Formation after 2 hours, mM: 12,5 mM
[3]; [5]
  Product Formation after 6 hours, %: 66%
  Product Formation after 6 hours, mM: 16,6 mM
[3]; result in words
  Utilization as a substrate: converted well
